Read-outs that look alike come from different tables or passages of the source.
Columns and labels:
[1] = target: KRAS-G12C/SOS1 interaction (Homo sapiens (Human), UniProt Q07889); experiment: Protein-Protein Interaction (PPI) assay, SOS1-KRAS binding assay kit (HTRF)
Description: This Example illustrates that exemplary compounds of the present invention blockade the interaction of SOS1 to KRAS protein.
The ability of a compound of Formula (I) to block the interaction of SOS1 to KRAS was measured using a SOS1-KRAS binding assay kit (CAT #63ADK000CB16PEG, Cisbio). Utilizing HTRF (Homogeneous Time-resolved Fluorescence) technology, the assay enables simple and rapid characterization of compound and antibody blockers in a high throughput format. The interaction between Tag1-SOS1 and Tag2-KRAS-G12C is detected by using anti-Tag1-Terbium antibody (HTRF donor) and anti-Tag2-XL665 antibody (HTRF acceptor). When the donor and acceptor antibodies are brought into close proximity due to SOS1 and KRAS-G12C binding, excitation of the donor antibody triggers fluorescent resonance energy transfer (FRET) towards the acceptor antibody, which in turn emits specifically at 665 nm. This specific signal is directly proportional to the extent of KRAS-G12C/SOS1 interaction.
The assay was carried according to the manufacturer's instructions. Compounds at an initial concentration of 10 mM in DMSO were first serially diluted on a 384-well plate using assay buffer at a ratio of 1:3 for a total of 9 concentrations with each of a volume of 20 μL. Blank buffer was included as the negative control. The final compound solution was in the buffer solution with 1% DMSO. Then, in each well of a 384-well plate, a solution of 2 μL compound solution, 4 μL tagged SOS1 and KRAS (G12C) protein stocks, respectively, and 10 μM GTP was incubated for 15 min. 10 μL mixture of […] antibody and anti-Tag1-Terbium antibody was introduced to each individual well. After 2 hours incubation at room temperature, fluorescence readout was measured with a Pelkin Elmer multiple plate reader VICTOR Nivo.
Excitation was from over a range of 245-395 nm, and emission from the donor (emission 1) was detected at […] and emission from the acceptor (emission 2) was detected at (606.5-623.5) nm. The HTRF ratio was calculated using the formula: (emission 1 @665 nm/emission 2 @620 nm)×10000. Thus, compounds blocking KRAS-G12C/SOS1 interaction will cause a reduction in HTRF signal ratio. The IC50 values were then calculated with the Graph pad Prism software.

pERK in Hela cells = experiment: Phospho-ERK (p-ERK) assay in Hela cells; format: cell-based; settings: Homo sapiens, β-actin normalized
Description: This Example illustrates that exemplary compounds of the present invention prevent KRas-mediated GTP nucleotide exchange mediated by SOS1 to inhibit KRas activity, thereby inhibiting the generation of the downstream effector pERK.
Hela cells (23,000/w) were seeded in a black clear flat bottom 96-well cell culture plate (Corning, #3904) and incubated at 37° C. overnight. At day 2, cells were dosed with compounds of Formula (I) with a 10 μM starting concentration and serially diluted 3× for a total of 9 concentrations. The cells were incubated for 1 hour with the compounds solubilized in DMSO at 37° C. Cells were immediately fixed by adding 100 μL of 8% formaldehyde to all wells in a fume hood and the plates were incubated for 1 hr at room temperature. The formaldehyde was discarded from the plates and washed 5 times and each time for 5 min with 200 μL of Triton Washing Solution (0.1% Triton in PBS) each time to permeabilize the cells. Cells were then blocked with 150 μL of Odyssey blocking buffer (LI-COR Biosciences #927-50010) at room temperature on a shaker. The blocking buffer was discarded and 50 μL of primary antibodies pERK (cell signaling Technology #4370; Rabbit, 1:500) and β-actin (AF5001; Mouse, 1:2000) diluted in Odyssey blocking buffer was added. The plates were incubated overnight at 4° C. on a shaker.
On day 3, the primary antibody solution was removed. Each plate was washed 5× times with 200 μL of 1×PBST (PBS+0.1% Tween 20) and incubated with 50 μL of secondary antibodies: Anti-Rabbit (LI-COR Biosciences #926-32211) and Anti-Mouse (LI-COR Biosciences #68070) at 1:1000 dilution in Odyssey blocking buffer at room temperature on a shaker for 1 hour (protected from light). The secondary antibody solution as removed and each plate was washed with PBST 5× times. Any liquid remaining was discarded and the plate was imaged using the Licor Odyssey machine according to the manufacturer's instruction, using a set focus length at 3.5 mm and both 800 nm and 700 nm filters. The 3-actin normalized scan values for each well were divided by the average of vehicle wells to get the % of p-ERK inhibition. The IC50 values were then calculated with the Graph pad Prism software. In general, p-ERK IC50 data are in line with the PPI IC50 data.

KRAS-G12C/SOS1 interaction, sequence (Q07889 whole entry, stated change not applied): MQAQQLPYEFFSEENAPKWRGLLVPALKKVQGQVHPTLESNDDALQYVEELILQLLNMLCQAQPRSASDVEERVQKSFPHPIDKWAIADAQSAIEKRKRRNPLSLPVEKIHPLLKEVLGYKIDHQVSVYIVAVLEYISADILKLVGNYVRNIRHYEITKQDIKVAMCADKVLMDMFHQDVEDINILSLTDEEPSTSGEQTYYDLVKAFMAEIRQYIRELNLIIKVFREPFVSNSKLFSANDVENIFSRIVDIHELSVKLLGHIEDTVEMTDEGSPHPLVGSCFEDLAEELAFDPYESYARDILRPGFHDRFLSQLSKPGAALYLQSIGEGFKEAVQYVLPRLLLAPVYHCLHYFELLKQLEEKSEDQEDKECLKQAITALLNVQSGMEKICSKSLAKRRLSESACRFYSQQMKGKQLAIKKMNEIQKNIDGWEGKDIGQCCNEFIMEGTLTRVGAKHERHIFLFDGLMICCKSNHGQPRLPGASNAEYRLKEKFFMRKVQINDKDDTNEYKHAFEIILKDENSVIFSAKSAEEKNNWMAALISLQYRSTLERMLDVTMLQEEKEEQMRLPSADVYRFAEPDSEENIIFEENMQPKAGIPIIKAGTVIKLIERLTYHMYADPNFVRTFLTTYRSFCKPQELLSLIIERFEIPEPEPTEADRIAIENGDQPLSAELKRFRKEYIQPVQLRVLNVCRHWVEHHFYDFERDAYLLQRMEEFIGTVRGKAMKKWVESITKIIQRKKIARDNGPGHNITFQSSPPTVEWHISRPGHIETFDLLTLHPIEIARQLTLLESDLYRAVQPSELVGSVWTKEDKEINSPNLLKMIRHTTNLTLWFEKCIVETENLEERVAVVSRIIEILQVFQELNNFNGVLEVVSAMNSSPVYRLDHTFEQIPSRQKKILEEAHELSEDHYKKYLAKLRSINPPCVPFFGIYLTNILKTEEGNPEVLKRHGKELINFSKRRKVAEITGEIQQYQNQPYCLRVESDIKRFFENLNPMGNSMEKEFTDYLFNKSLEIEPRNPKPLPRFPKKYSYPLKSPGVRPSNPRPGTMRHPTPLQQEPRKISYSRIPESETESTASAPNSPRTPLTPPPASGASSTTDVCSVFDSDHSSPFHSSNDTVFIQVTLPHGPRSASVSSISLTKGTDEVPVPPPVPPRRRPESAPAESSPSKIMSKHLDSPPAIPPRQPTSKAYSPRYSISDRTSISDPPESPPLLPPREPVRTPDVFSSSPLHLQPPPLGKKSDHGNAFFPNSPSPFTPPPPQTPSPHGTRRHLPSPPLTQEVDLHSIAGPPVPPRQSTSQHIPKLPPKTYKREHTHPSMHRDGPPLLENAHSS

IC50 ([1]; read-out: PPI Assay IC50) | IC50 [1] | SMILES | IC50 (pERK in Hela cells; Table 1, 1 hour with compound) | IC50 (pERK in Hela cells; Table 2, 1 hour with compound)
< 100 nM | – | C[C@@H](Nc1ncnc2c1cc(N1C(=O)COC[C@@H]1C)c1nncn12)c1cccc(C(F)F)c1F [Example 168] | < 100 nM | –
< 100 nM | – | Cc1nc2c(N3CCOCC3=O)cc3c(N[C@H](C)c4cccc(C(F)F)c4F)ncnc3n2n1 [Example 155] | < 100 nM | –
< 100 nM | – | Cc1nc2c(N3CC4(CC4)OCC3=O)cc3c(N[C@H](C)c4cccc(C(F)F)c4F)ncnc3n2n1 [Example 157] | < 100 nM | –
< 100 nM | – | C[C@@H](Nc1ncnc2c1cc(N1CCOCC1)c1ncnn12)c1cc(N)cc(C(F)(F)F)c1 [Example 153, (R)—N-(1-(3-amino-5-(trifluoromethyl)phenyl)ethyl)-4-morpholino-[1,2,4]triazolo[1′,5′:1,6]pyrido[2,3-d]pyrimidin-6-amine] | > 100 nM | –
< 100 nM | – | CC(=O)N1CCC(O)(c2cc3c(N[C@H](C)c4cccc(C(F)F)c4F)nc(C)nc3n3cnnc23)CC1 [Example 107, (R)-1-(4-(4-((1-(3-(difluoromethyl)-2-fluorophenyl)ethyl)amino)-2-methyl-[1,2,4]triazolo[4′,3′:1,6]pyrido[2,3-d]pyrimidin-6-yl)-4-hydroxypiperidin-1-yl)ethan-1-one] | < 100 nM | –
< 100 nM | – | Cc1nc(N[C@H](C)c2cccc(C(F)F)c2F)c2cc(C(=O)N3CCCC34CCOC4)c3nnnn3c2n1 (stereo partly drawn) [Example 60] | > 100 nM | –
< 100 nM | – | CC(=O)N1CCC(O)(c2cc3c(N[C@H](C)c4cccc(C(F)F)c4F)nc(C)nc3n3nnnc23)CC1 [Example 112] | > 100 nM | –
< 100 nM | – | CC(=O)N1CCC(F)(c2cc3c(N[C@H](C)c4cccc(C(F)F)c4F)nc(C)nc3n3cnnc23)CC1 [Example 114, (R)-1-(4-(4-((1-(3-(difluoromethyl)-2-fluorophenyl)ethyl)amino)-2-methyl-[1,2,4]triazolo[4′,3′:1,6]pyrido[2,3-d]pyrimidin-6-yl)-4-fluoropiperidin-1-yl)ethan-1-one] | < 100 nM | –
< 100 nM | – | Cc1nc(N[C@H](C)c2cccc(C(F)(F)F)c2F)c2cc(C(=O)N3CC4(COC4)C3)c3ncnn3c2n1 [Example 39] | > 100 nM | –
< 100 nM | – | Cc1nc(N[C@H](C)c2cc(N)cc(C(F)(F)F)c2)c2cc(C(=O)N3CC4(COC4)C3)c3ncnn3c2n1 [Example 6] | < 100 nM | –
< 100 nM | – | Cc1nc(N[C@H](C)c2cccc(C(F)F)c2F)c2cc(C(=O)N3C4CC3CN(C)C4)c3nnnn3c2n1 [Example 66] | > 100 nM | –
< 100 nM | – | C[C@@H](Nc1ncnc2c1cc(C1(C)CCS(=O)(=O)CC1)c1nncn12)c1cccc(C(F)F)c1F [Example 129] | < 100 nM | –
< 100 nM | – | Cc1nc(N[C@H](C)c2cccc(C(F)F)c2F)c2cc(N3CCOCC3)c3nncn3c2n1 [Example 74, (R)—N-(1-(3-(difluoromethyl)-2-fluorophenyl)ethyl)-2-methyl-6-morpholino-[1,2,4]triazolo[4′,3′:1,6]pyrido[2,3-d]pyrimidin-4-amine] | > 100 nM | –
– | > 100 nM | CCOC(=O)c1cc2c(N[C@H](C)c3cc(N)cc(C(F)(F)F)c3)nc(C)nc2n2ncnc12 [Example 1, Ethyl (R)-6-((1-(3-amino-5-(trifluoromethyl)phenyl)ethyl)amino)-8-methyl-[1,2,4]triazolo[1′,5′:1,6]pyrido[2,3-d]pyrimidine-4-carboxylate] | – | > 100 nM
< 100 nM | – | Cc1nc(N[C@H](C)c2cccc(C(F)F)c2F)c2cc(C(=O)N3CC4(COC4)C3)c3nncn3c2n1 [Example 51] | > 100 nM | –
< 100 nM | – | Cc1nc(N[C@H](C)c2cccc(C(F)F)c2F)c2cc(N3CCS(=O)(=O)CC3)c3nncn3c2n1 [Example 76] | > 100 nM | –
< 100 nM | – | Cc1nc(N[C@H](C)c2cccc(C(F)F)c2F)c2cc(C(=O)N3CCC4(COC4)C3)c3ncnn3c2n1 [Example 33] | > 100 nM | –

IC50 ([1]; read-out: PPI Assay IC50) | IC50 [1] | SMILES | IC50 (pERK in Hela cells; Table 1, 1 hour with compound) | IC50 (pERK in Hela cells; Table 2, 1 hour with compound)
< 100 nM | – | Cc1nc(N[C@H](C)c2cccc(C(F)F)c2F)c2cc(C(=O)N3CCCC34CCOC4)c3ncnn3c2n1 (stereo partly drawn) [Example 31] | > 100 nM | –
< 100 nM | – | Cc1nc(N[C@H](C)c2cccc(C(F)F)c2F)c2cc(C(=O)N(C)C)c3nnnn3c2n1 [Example 55, (R)-6-((1-(3-(difluoromethyl)-2-fluorophenyl)ethyl)amino)-N,N,8-trimethyltetrazolo[1′,5′:1,6]pyrido[2,3-d]pyrimidine-4-carboxamide] | > 100 nM | –
< 100 nM | – | C[C@@H](Nc1ncnc2c1cc(O[C@H]1CCOC1)c1nncn12)c1cccc(C(F)F)c1F [Example 88] | < 100 nM | –
< 100 nM | – | Cc1nc(N[C@H](C)c2cccc(C(F)F)c2F)c2cc(C(=O)N3C[C@H]4COC[C@H]4C3)c3ncnn3c2n1 [Example 29] | < 100 nM | –
< 100 nM | – | Cc1nc(N[C@H](C)c2cccc(C(F)F)c2F)c2cc(C(=O)N3CCOCC3)c3ncnn3c2n1 [Example 11] | > 100 nM | –
< 100 nM | – | Cc1nc(N[C@H](C)c2cccc(C(F)F)c2F)c2cc(N3CCS(=O)(=O)CC3)c3nnnn3c2n1 [Example 93] | > 100 nM | –
< 100 nM | – | CC(=O)N1CCC(F)(c2cc3c(N[C@H](C)c4cccc(C(F)F)c4F)nc(C)nc3n3cnnc23)C1 (stereo partly drawn) [Example 115] | > 100 nM | –
< 100 nM | – | COC1(c2cc3c(N[C@H](C)c4cccc(C(F)F)c4F)nc(C)nc3n3cnnc23)CCN(C(C)=O)C1 (stereo partly drawn) [Example 120] | < 100 nM | –
< 100 nM | – | Cc1nc(N[C@H](C)c2cccc(C(F)F)c2F)c2cc(C3CCS(=O)(=O)CC3)c3nncn3c2n1 [Example 152] | > 100 nM | –
< 100 nM | – | C[C@@H](Nc1ncnc2c1cc(N1CCOCC1)c1nnnn12)c1cccc(C(F)F)c1F [Example 98] | < 100 nM | –
< 100 nM | – | Cc1nc2c(N3CCOC4(CC4)C3=O)cc3c(N[C@H](C)c4cccc(C(F)F)c4F)ncnc3n2n1 [Example 156] | < 100 nM | –
< 100 nM | – | Cc1nc(N[C@H](C)c2cccc(C(F)F)c2F)c2cc(C(=O)N3CC4(COC4)C3)c3ncnn3c2n1 [Example 27] | < 100 nM | –
< 100 nM | – | Cc1nc(N[C@H](C)c2cccc(C(F)F)c2F)c2cc(N3CCOCC3)c3nnnn3c2n1 [Example 91, (R)—N-(1-(3-(difluoromethyl)-2-fluorophenyl)ethyl)-8-methyl-4-morpholinotetrazolo[1′,5′:1,6]pyrido[2,3-d]pyrimidin-6-amine] | < 100 nM | –
< 100 nM | – | COC1(c2cc3c(N[C@H](C)c4cccc(C(F)F)c4F)ncnc3n3cnnc23)CCN(C(C)=O)CC1 [Example 119] | < 100 nM | –
< 100 nM | – | Cc1nc2c(N3CCOCCC3=O)cc3c(N[C@H](C)c4cccc(C(F)F)c4F)ncnc3n2n1 [Example 158] | < 100 nM | –
< 100 nM | – | C[C@@H](Nc1ncnc2c1cc(N1CCN(C)C(=O)C1)c1nncn12)c1cccc(C(F)F)c1F [Example 164] | < 100 nM | –

Source: patent US20250230159A1, “FUSED HETEROCYCLIC COMPOUNDS AS MODULATORS OF RAS SIGNALLING” (Shenzhen Ionova Life Science Co., Ltd., priority 2022, published 2025)
